This note sets out measurements from ChEMBL document CHEMBL5523719, “Structure-activity relationship study of new carbazole sulfonamide derivatives as anticancer agents with dual-target mechanism” (Eur J Med Chem, 2024).

For orientation: IC50 means the concentration that inhibits the measured activity by half.

SMILES strings stand for the structures. The source made the active and inactive calls. The calls are words filed in the database; no cut-off is given here.

For one data set, the system named is MDA-MB-231. The experiment in a line: Antiproliferation activity against human MDA-MB-231 cells measured after 72 hrs incubation by MTT assay. It counts as functional, cell-based. As to conditions: MDA-MB-231, 72 h.
Another data set concerns MIA PaCa-2. The experiment in a line: Antiproliferation activity against human MIA PaCa-2 cells measured after 72 hrs incubation by MTT assay. As to conditions: MIA PaCa-2, 72 h. It counts as functional, cell-based. A general note: Formazan colour is commonly taken as a measure of viable cells.
The next data set deals with NCI-H460. The data set can be described thus: Antiproliferation activity against human NCI-H460 cells measured after 72 hrs incubation by MTT assay. Particulars: NCI-H460, 72 h. It counts as functional, cell-based.
For another data set, the system named is KB. The data set can be described thus: Antiproliferation activity against human KB cells measured after 72 hrs incubation by MTT assay. It counts as functional, cell-based.
The subject of a further data set is L02. The experiment in a line: Antiproliferation activity against human L02 cells measured after 72 hrs incubation by MTT assay. Particulars: L02, 72 h. The data set is classed as functional, cell-based.
In data set [1] the test system is MCF7. The data set can be described thus: In vivo antitumor activity against human MCF7 cells xenografted in BALB/c mouse assessed as inhibition of tumor growth treated iv every other day for 26 days. The data set is classed as functional, organism-based. As to conditions: time 26.0 day. A general note: Xenograft models place foreign cells or tissue in a host animal.

Data set [2] concerns MCF7. The experiment in a line: In vivo antitumor activity against human MCF7 cells xenografted in BALB/c mouse assessed as decrease in tumor volume treated at 5 mg/kg, iv every other day for 26 days relative to control. The data set is classed as functional. As to conditions: MCF7, 624 h, time 26 day.
The test system of data set [3] is MCF7. The data set can be described thus: In vivo antitumor activity against human MCF7 cells xenografted in BALB/c mouse assessed as decrease in tumor volume treated at 10 mg/kg, iv every other day for 26 days relative to control. The data set is classed as functional. As to conditions: MCF7, 624 h, time 26 day.
Data set [4] is described as follows: Toxicity in BALB/c mouse xenografted with human MCF7 cells assessed as lesions in heart at 10 mg/kg, iv every other day for 26 days by H and E staining based assay. It counts as organism-based. Particulars: in vivo, 624 h, time 26 day.
The nature of data set [5]: Toxicity in BALB/c mouse xenografted with human MCF7 cells assessed as lesions in liver at 10 mg/kg, iv every other day for 26 days by H and E staining based assay. The data set is classed as organism-based. As to conditions: in vivo, 624 h, time 26 day.
The nature of data set [6]: Toxicity in BALB/c mouse xenografted with human MCF7 cells assessed as lesions in spleen at 10 mg/kg, iv every other day for 26 days by H and E staining based assay. It counts as organism-based. As to conditions: in vivo, 624 h, time 26 day.
The nature of data set [7]: Toxicity in BALB/c mouse xenografted with human MCF7 cells assessed as lesions in lung at 10 mg/kg, iv every other day for 26 days by H and E staining based assay. The data set is classed as organism-based. Particulars: in vivo, 624 h, time 26 day.
The nature of data set [8]: Toxicity in BALB/c mouse xenografted with human MCF7 cells assessed as lesions in kidney at 10 mg/kg, iv every other day for 26 days by H and E staining based assay. As to conditions: in vivo, 624 h, time 26 day. The data set is classed as organism-based.
The test system of data set [9] is MCF7. The experiment in a line: In vivo antitumor activity against human MCF7 cells xenografted in BALB/c mouse assessed as inhibition of Ki-67 expression treated at 10 mg/kg, iv every other day for 26 days. Particulars: time 26.0 day. It counts as functional, organism-based.
The test system of data set [10] is MCF7. The experiment in a line: In vivo antitumor activity against human MCF7 cells xenografted in BALB/c mouse assessed as increase in cleaved caspase-3 treated at 10 mg/kg, iv every other day for 26 days. The data set is classed as functional, organism-based. As to conditions: time 26.0 day.
For the next data set, the system named is HepG2. The experiment in a line: In vivo antitumor activity against human HepG2 cells xenografted in mouse assessed as inhibition of tumor growth treated at 50 mg/kg, iv every other day for 22 days relative to control. It counts as functional. As to conditions: HepG2, 528 h, time 22 day, read-out: TGI.
The nature of data set [11]: Toxicity in mouse xenografted with human HepG2 cells assessed as body weight change at 10 to 20 mg/kg, iv every other day for 22 days. It counts as organism-based. Particulars: in vivo, 528 h, dose 10-20 mg/kg, time 22 day.
Data set [12] deals with MCF7. The data set can be described thus: In vivo antitumor activity against human MCF7 cells xenografted in BALB/c mouse assessed as decrease in tumor volume treated at 50 mg/kg, iv every other day for 26 days relative to control. It counts as functional. As to conditions: MCF7, 624 h, time 26 day.
Data set [13] relates to MCF7. The data set can be described thus: In vivo antitumor activity against human MCF7 cells xenografted in BALB/c mouse assessed as inhibition of Ki-67 expression treated at 50 mg/kg, iv every other day for 26 days. The data set is classed as functional, organism-based. Particulars: time 26.0 day.
Data set [14] concerns MCF7. The experiment in a line: In vivo antitumor activity against human MCF7 cells xenografted in BALB/c mouse assessed as increase in cleaved caspase-3 treated at 50 mg/kg, iv every other day for 26 days. The data set is classed as functional, organism-based. As to conditions: time 26.0 day.
In data set [15] the test system is MCF7. The data set can be described thus: In vivo antitumor activity against human MCF7 cells xenografted in BALB/c mouse assessed as decrease in tumor volume treated at 2.5 mg/kg, iv every other day for 26 days relative to control. It counts as functional. As to conditions: MCF7, 624 h, time 26 day.
Data set [16] is described as follows: Toxicity in BALB/c mouse xenografted with human MCF7 cells assessed as lesions in heart at 5 mg/kg, iv every other day for 26 days by H and E staining based assay. As to conditions: in vivo, 624 h, time 26 day. The data set is classed as organism-based.
Data set [17] can be described thus: Toxicity in BALB/c mouse xenografted with human MCF7 cells assessed as lesions in liver at 5 mg/kg, iv every other day for 26 days by H and E staining based assay. It counts as organism-based. Particulars: in vivo, 624 h, time 26 day.
Data set [18] in a line: Toxicity in BALB/c mouse xenografted with human MCF7 cells assessed as lesions in spleen at 5 mg/kg, iv every other day for 26 days by H and E staining based assay. The data set is classed as organism-based. Particulars: in vivo, 624 h, time 26 day.
Data set [19] is described as follows: Toxicity in BALB/c mouse xenografted with human MCF7 cells assessed as lesions in lung at 5 mg/kg, iv every other day for 26 days by H and E staining based assay. It counts as organism-based. As to conditions: in vivo, 624 h, time 26 day.
The nature of data set [20]: Toxicity in BALB/c mouse xenografted with human MCF7 cells assessed as lesions in kidney at 5 mg/kg, iv every other day for 26 days by H and E staining based assay. The data set is classed as organism-based. Particulars: in vivo, 624 h, time 26 day.
For data set [21], the system named is MCF7. The experiment in a line: In vivo antitumor activity against human MCF7 cells xenografted in BALB/c mouse assessed as inhibition of Ki-67 expression treated at 5 mg/kg, iv every other day for 26 days. Particulars: time 26.0 day. It counts as functional, organism-based.
Data set [22] concerns MCF7. The data set can be described thus: In vivo antitumor activity against human MCF7 cells xenografted in BALB/c mouse assessed as increase in cleaved caspase-3 treated at 5 mg/kg, iv every other day for 26 days. It counts as functional, organism-based. As to conditions: time 26.0 day.

As to `COc1cc(NS(=O)(=O)c2ccc3c(c2)c2ccc(OP(=O)([O-])[O-])cc2n3C)c(OC)cc1Cl.[Na+].[Na+]`, the IC50 stood at 5.72 nM in the data set with MDA-MB-231; 14.4 nM in the data set with MIA PaCa-2; 18.5 nM in the data set on NCI-H460; 36.1 nM in the data set on KB; 55.3 nM in the data set with L02. For the same compound, the TGI entry in the data set with MCF7 [1] is “Dose-Dependent Effect”. Besides, in the data set with MCF7 [2], the inhibition in vivo at 5 mg/kg was 56%. Moreover, the inhibition in vivo at 10 mg/kg with MCF7 [3] is 73%. The Activity entry in data set [4], in data set [5], in data set [6], in [7] and in [8] was “Non-Toxic” throughout. In addition, the result with MCF7 [9] and in the data set with MCF7 [10] was Active.

Regarding `COc1ccc(/C=C\c2cc(OC)c(OC)c(OC)c2)cc1OP(=O)([O-])[O-].[Na+].[Na+]` [FOSBRETABULIN DISODIUM], the inhibition in vivo at 50 mg/kg in the data set on HepG2 amounted to 72%; with MCF7 [12], 77%. In data set [11], the Activity result is on record as “Non-Toxic”. Moreover, the IC50 came out at 3.66 nM in the data set with MDA-MB-231; 5.26 nM in the data set on MIA PaCa-2; 0.29 nM in the data set on NCI-H460; 0.66 nM in the data set with KB; 140 nM in the data set with L02. The result in the data set with MCF7 [13] and with MCF7 [14] was Active.

Consider `COc1cc(NS(=O)(=O)c2ccc3c(c2)c2ccc(NC(=O)[C@@H](N)C(C)C)cc2n3C)c(OC)cc1Cl.Cl`, for which the IC50 in the data set on MDA-MB-231 is 102 nM; with MIA PaCa-2, 72.1 nM; in the data set on NCI-H460, 41.6 nM; with KB, 23 nM; in the data set with L02 it was 43.2 nM. Besides, the TGI result with MCF7 [1] was “Dose-Dependent Effect”. In the data set on MCF7 [15], the inhibition in vivo at 2.5 mg/kg was determined as 38%. Also, the inhibition in vivo at 5 mg/kg with MCF7 [2] came out at 66%. The Activity entry in [16], in [17], in data set [18], in data set [19] and in data set [20] was “Non-Toxic” in each case. Besides, the outcome with MCF7 [21] and in the data set with MCF7 [22] was Active.
